No end group written: not given here.
Tests used:
[1] = target: T1, NaV1.5 IQ/AA mutant (Homo sapiens, UniProt Q14524, I1908A/Q1909A); experiment: Multichannel recordings of late Na current, NaV1.5 IQ/AA mutant in HEK293 cells; format: cell-based; conditions: for change in INa,L: co-expression with NaV1.5 IQ/AA in HEK293 cells
T1 construct: expressed in transfected cells; host or cells: HEK293 (ATCC CRL1573)
From the text: The human NaV1.5 channel corresponds to clone M77235.1 (GenBank) and is subcloned into pGW 1 vector with HindIII and SaII. To facilitate construction of channelopathic mutations in the channel carboxy-terminus, we introduced silent mutations into NaV1.5 to introduce an NruI cutting site near the channel carboxy-terminus (5329-gtggccacg-5337 into 5329-gtCgcGacg-5337). Subsequently, we used overlap-extension PCR and ligated the PCR product into NaV1.5/pGW1 using NruI and XbaI restriction sites (mutations: E1784K, S1904L, IQ/AA, and Q1909R). For generating the ΔKPQ and IFM/IQM mutations, we used overlap-extension PCR and ligated in NaV1.5/pGW1 following restriction digest using KpnI and XbaI site. For generation of NaV1.5 truncations, we PCR amplified relevant segments using a forward primer upstream of the KpnI site and a reverse primer that truncated at the appropriate location (Δ1810 and Δ1885) and included an XbaI site and ligated into NaV1.5/pW1 vector. For LILA/WICW mutations, we used overlap extension and used restriction site AgeI and NheI for subsequent ligation. All segments subjected to PCR amplification were verified by sequencing. For generating human FHF2 splice-variants, we synthesized gene fragments and ligated into pcDNA3 using BamHI/EcoRI restriction sites. Human FHF1A and FHF1B were subcloned into ECFP-N3 vector, FHF2 splice variants and FHF3 were subcloned into pcDNA3. Truncations of the FHF1A amino-terminus (NT) were generated as fusion proteins with Venus fluorescent protein in the carboxy-terminus by encoding the relevant segments as noted in FIG. 12A in the forward PCR primer and the fluorophore as the template. Following PCR amplification, each fragment was ligated into pcDNA3 following restriction digest using NheI and XhoI enzymes. Plasmid encoding PKA catalytic subunit was constructed from pDONR222-PRKACA as described previously.
HEK293 cells (ATCC CRL1573) were cultured on glass coverslips in 60-mm dishes and transfected using the Ca^2+-phosphate method as previously described. For electrophysiology experiments, we co-transfected 4-8 μg of cDNA encoding the desired channel variant with 4 μg of YFP, and 1 μg of simian virus 40 T-antigen. For experiments evaluating effect of FHF, we transfected the relevant FHF variant at 1:1 ratio as the α-subunit. For experiments considering competition between FHF1/2 isoforms, we co-transfected FHF1B and FHF2S variants at specified ratios (ranging from 1:1 to 1:10). The culture media was replaced following 4 h of transfection. Electrophysiology recordings were then performed at room temperature 1-2 days following transfection.
Multichannel records were obtained in the on-cell configuration with either HEK293 cells or in aMVM as in our previous study. The pipette contained (in mM): 140 NaCl; 10 HEPES; 0.5 CaCl2; at 300 mOsm, adjusted with tetraethylammonium methanesulfonate; and pH 7.4 adjusted with tetraethylammonium hydroxide. To zero membrane potential, the bath contained (in mM): 132 K^+-glutamate; 5 KCl; 5 NaCl; 3 MgCl; 2 EGTA; 10 glucose; 20HEPES; at 300 mOsm adjusted with glucose; and pH 7.4 adjusted with NaOH. Data were acquired at room temperature using the integrating mode of an Axopatch 200A amplifier (Axon Instruments, Molecular Devices). Patch pipettes (3-10 MΩ) were pulled from ultra-thick-walled borosilicate glass (BF200-116-10; Sutter Instruments) using horizontal puller (P-97, Sutter Instruments), fire polished with a microforge (Narishige), and coated with Sylgard™ brand silicone elastomer (Dow Corning). Elementary currents were low-pass filtered at 2 kHz with a four-pole Bessel filter and digitized at 200 kHz with an ITC-18 unit (Instrutech), controlled by custom MATLAB software (Mathworks). For each pulse, we obtained P/8 leak pulses. Leak subtraction was performed using an automated algorithm which fit the kinetics of the leak current or the capacitive transient with convex optimization with L1 regularization. […]

[2] = target: NaV1.5 LILA/WICW mutant (human) (UniProt Q14524); experiment: cell-based or functional assay
[3] = target: NaV1.5 IFM/IQM mutant (human) (UniProt Q14524); experiment: cell-based or functional assay
[4] = system: Ca^2+ channels and K^+ channels; conditions: cited from earlier work
[5] = target: T2, NaV1.5 S1904L mutant channel (Homo sapiens, UniProt Q14524, S1904L); experiment: Multichannel recordings of late Na current, NaV1.5 S1904L; format: cell-based
T2 construct: expressed in transfected cells; host or cells: HEK293 (ATCC CRL1573)
Protocol: HEK293 cells (ATCC CRL1573) were cultured on glass coverslips in 60-mm dishes and transfected using the Ca^2+-phosphate method as previously described. For electrophysiology experiments, we co-transfected 4-8 μg of cDNA encoding the desired channel variant with 4 μg of YFP, and 1 μg of simian virus 40 T-antigen. […] The culture media was replaced following 4 h of transfection. Electrophysiology recordings were then performed at room temperature 1-2 days following transfection.

[6] = system: late Na current; conditions: cited from earlier work
[7] = system: neuronal Na channels; conditions: cited from earlier work
[8] = in vivo; cited from earlier work
[9] = system: ischemia induced arrhythmias; conditions: rats; cited from earlier work
[10] = target: NaV1.5 IQ/AA mutant (human) (UniProt Q14524); experiment: cell-based or functional assay
[11] = system: aMVM from non-transgenic mice; experiment: Multichannel recordings of INa,L in cultured aMVM from non-transgenic mice; format: cell-based, mouse; conditions: 5 μM Forskolin following shRNA-mediated silencing of FHF2
From the text: As such, we sought to determine whether “protective” FHF variants may inhibit phosphorylation-dependent INa,L. To maximally upregulate INa,L, we co-expressed wild-type NaV1.5 with either (1) the catalytic Cα subunit of protein kinase A (PKA) or (2) a constitutively-active Ca^2+/CaM dependent kinase II (CaMKIIT286D) mutant in HEK293 cells. This maneuver likely triggers runaway phosphorylation of NaV1.5 and thereby furnishes a baseline to discern any potential FHF-dependent change. As expected, we observed an ˜5 fold increase in INa,L in the presence of the PKA Cα subunit (FIGS. 3D and 3E), and a 3-fold increase with CaMKIIT286D (FIGS. 3E and 11B). […] Encouraged by these findings, we dissected the functional role of this modulation in native cardiomyocytes (FIGS. 3F and 3G).
Multichannel records were obtained in the on-cell configuration with either HEK293 cells or in aMVM as in our previous study. The pipette contained (in mM): 140 NaCl; 10 HEPES; 0.5 CaCl2; at 300 mOsm, adjusted with tetraethylammonium methanesulfonate; and pH 7.4 adjusted with tetraethylammonium hydroxide. […]
Mice ventricular myocytes were isolated by enzymatic digestion using a Langendorff perfusion apparatus as previously described. […] The efficacy of viral transduction was assessed 24-48 hours post infection.

[12] = acute animal toxicity tests; cited from earlier work
[13] = incubation with 10 μM ranolazine

## 18-39: FHF1A amino-terminal truncation peptide, residues 18-39, Venus fusion (ESNSDRVSASKRRSSPSKDGRS; also: Venus fusion, end not given here; UniProt P61328 18-39, looked up, fragment)
[1]
  change in INa,L: increase late channel openings

## 12-17: FHF1A amino-terminal truncation peptide, residues 12-17, Venus fusion (QKRQAR; also: Venus fusion, end not given here; UniProt P61328 12-17, looked up, fragment)
[1]
  change in INa,L: increase late channel openings

## 1-18: FHF1A amino-terminal truncation peptide, residues 1-18, Venus fusion (MAAAIASSLIRQKRQARE; also: Venus fusion, end not given here; UniProt P61328 1-18, looked up, fragment)
[1]
  change in INa,L: increase late channel openings

## FHF1A (human fibroblast growth factor homologous factor 1, splice variant A) (from UniProt P61328 1-243)
[2]
  time constant of the excess inactivation (single-exponential decay): 12.3 ms
[3]
  time constant of the excess inactivation (single-exponential decay): 17.8 ms

## COc1ccccc1OCC(O)CN1CCN(CC(=O)Nc2c(C)cccc2C)CC1 (stereo not drawn) [ranolazine]
[4]
  interactions with other ionic currents: non-selectivity interactions with other ionic currents
[5]; [13]
  reduction in INa,L: 3 fold
[5]; ranolazine, FIG. 13I
  inhibition of INa,L: inhibits INa,L
[6]
  potency/efficacy for blocking late Na current: suboptimal potency
[1]; [13]
  reduction in INa,L: 3 fold
[1]; ranolazine, FIG. 13G
  inhibition of INa,L: modest inhibition

## FC(F)(F)Oc1ccc(-c2ccc3nnc(C(F)(F)F)n3c2)cc1 [GS-458967]
[7]
  block of neuronal Na channels: use-dependent block
[8]
  brain penetration: high brain penetration
[6]
  potency/efficacy for blocking late Na current: high efficacy

## COc1ccccc1SC[C@@H](C)CN[C@@H]1COc2ccccc2SC1 [F15845]
[6]
  potency/efficacy for blocking late Na current: very high efficacy
[9]
  effect on ischemia induced arrhythmias: prevented ischemia induced arrhythmias

## FHF1B (human) (from UniProt P61328 1-181)
[10]
  INa,L (Rpersist), multichannel recordings in HEK293 cells: 4 fold
  INa,L, multichannel recordings in HEK293 cells: 3 fold
  Rpersist against the ratio of FHF1B to FHF2S cDNA (ρ), half-maximal effect (ratio of FHF1B to FHF2S cDNA): 0.4

## 9-32: FHF1A amino-terminal truncation peptide, residues 9-32, Venus fusion (LIRQKRQARESNSDRVSASKRRSS; also: Venus fusion, end not given here; UniProt P61328 9-32, looked up, fragment)
[1]
  change in INa,L: increase late channel openings

## C=C[C@@]1(C)CC(=O)[C@]2(O)[C@@]3(C)[C@@H](O)CCC(C)(C)[C@@H]3[C@H](O)[C@H](OC(C)=O)[C@@]2(C)O1 [Forskolin]
[11]
  increase in INa,L: 20 fold

## Cc1noc(Cn2nc3ccc(-c4ccc(OC(F)(F)F)cc4)cn3c2=O)n1 [GS-462808]
[12]
  liver findings: caused liver lesions

## FixR (FHF-inhibiting-X-region), FHF1A amino-terminal residues 1-39, expressed as a Venus fusion (peptide)
[10]
  fold reduction in INa,L (FIG. 5C): 10 to 15 fold

B1: FHF1A amino terminus: entire FHF1A amino terminus expressed as a peptide (peptide)
peptide: MAAAIASSLIRQKRQARESNSDRVSASKRRSSPSKDGRSLCERHVLGVFSKVRFCSGRKRPVRRRP
modifications: left off: large carriers
notes: entire FHF1A amino terminus expressed as a peptide
[1]
  change in INa,L: strongly inhibited
